Experimental data taken from patent US9527847B2, “Treatment of lupus, fibrotic conditions, and inflammatory myopathies and other disorders using PI3 kinase inhibitors” (INFINITY PHARMACEUTICALS, INC., priority 2012, dated 2016).

System: NZBWF1/J mice
Test: Murine NZB/W F1 lupus model
Assay type: in vivo, mouse
Settings: vs vehicle; for Glomerulonephritis score reduction: kidney histopathology; for Plasma anti-dsDNA IgG levels: days 49, 98, 140 (age 30, 37, 43 wk)
Excerpt: Female NZBWF1/J mice (n=60) that were 8 weeks old on arrival and weighed approximately 35-51 grams (mean 42 g) at enrollment (mouse age approx. 23 weeks) were obtained from The Jackson Laboratory, Bar Harbor, Me. (stock number 100008). Animals were identified by a distinct number of ink marks at the base of the tail delineating animal number. After enrollment, all cages were labeled with protocol number, group number, and animal numbers.
Mice were terminated at age 43 weeks (day 140).
All dose solutions were prepared to deliver in 10 ml/kg (0.3 ml/30 g mouse).
Body weights were measured and recorded prior to study initiation for randomization, on the first day of dosing prior to dosing, and weekly throughout the study. Body weights were also recorded at scheduled termination points and as needed if test subjects appeared to decrease in weight by visual inspection. The animals were observed daily for significant clinical signs, morbidity and mortality.
Urine from each animal was tested weekly (beginning at mouse age 23 weeks) for proteinuria using Clinitech Multistick test strips (Bayer).
At necropsy, animals were anesthetized with isoflorane and bled via cardiac puncture for serum (for clinical chemistry analysis) and plasma (for Anti-dsDNA ELISA and PK). Terminal urine was collected and assessed. Spleens and kidneys (paired) were collected, weighed, and placed in 10% NBF. Serum obtained at necropsy was sent to Antech Diagnostics for analysis. Terminal plasma samples were split with half being used for Anti-dsDNA ELISA and the other half being shipped to the sponsor.
Anti-dsDNA IgG analysis was performed on days 0, 49, 98, and 140 (mouse age 23, 30, 37, and 43 weeks). Anti-dsDNA IgG levels were determined using an Anti-dsDNA IgG ELISA Kit (Alpha Diagnostic, kit #5120, lot #90903K4) following manufacturer's instructions.
Blood samples for clinical chemistry evaluation were collected at termination via cardiac puncture from Isoflurane anesthetized animals into serum separator microtainer tubes. Serum was sent to Antech Diagnostics for analysis.
The following parameters were measured: Albumin (ALB), Albumin: Globulin ratio (A/G), Alkaline phosphatase (ALK), Alanine aminotransferase (ALT), Aspartate aminotransferase (AST), Calcium (CA), Magnesium (Mg), Phosphorous (P), Globulin (GLOB), Electrolytes (Sodium (Na), Potassium (K), Chloride (Cl)), Gamma glutamyltransferase (GGT), Total bilirubin (TBILI), Amylase (AMY), Lipase (LIP), Osmolality, Triglycerides (TRIG), Total cholesterol (CHOL), Urea nitrogen (BUN), Creatinine (CREAT), Glucose (GLU), Total protein (TP), and Creatinine kinase (CPK).
Histopathologic evaluation was performed on kidneys. Kidneys from all surviving animals were examined microscopically by a board certified veterinary pathologist and observations were entered into a computer-assisted data retrieval system. Kidney sections were stained with Masson's Trichrome, or Hematoxylin and Eosin. To maintain blinding of the analysis, slides were labeled with the animal number with no reference to treatment group.
Kidneys were scored according to the following system (developed by Chan O, Madaio M P, Shlomchik M J. The roles of B cells in MRL/lpr murine lupus. Annals New York Academy of Sciences, 1997; 815:75-82), modified to suit the lesion severity.
• 0=Normal. • 1=Focal or multifocal, minimal to mild, early proliferative. • 2=Multifocal mild to moderate or mild diffuse proliferative. • 3=Diffuse moderate proliferative with or without multifocal severe areas. • 4=Marked diffuse proliferative, with crescents/sclerosis, multifocal protein casts present. • 5=Severe diffuse proliferative, with crescents/sclerosis, diffuse protein casts present. […]

[1] = serum at termination, Compound 292 (1, 5, 10 mg/kg), Dex 2 mg/kg

C[C@H](Nc1ncnc2[nH]cnc12)c1cc2cccc(Cl)c2c(=O)n1-c1ccccc1 [Compound 292]
Glomerulonephritis score reduction (1 mg/kg PO QD): 68% | Urine protein levels (1 mg/kg PO QD, p<0.05 at mouse age 43 wk): significantly reduced | Perivascular inflammation score reduction (1 mg/kg PO QD): 79% | Protein cast severity reduction (1 mg/kg PO QD): 100% | Spleen weight reduction (1 mg/kg PO QD): 39% | Summed histopathology scores reduction (1 mg/kg PO QD): 67% | Plasma anti-dsDNA IgG levels (5 mg/kg PO QD): significantly reduced | Glomerulonephritis score reduction (5 mg/kg PO QD): 89% | Urine protein levels (5 mg/kg PO QD, p<0.05 at mouse age 43 wk): significantly reduced | Interstitial nephritis score reduction (5 mg/kg PO QD): 54% | Perivascular inflammation score reduction (5 mg/kg PO QD): 90% | Protein cast severity reduction (5 mg/kg PO QD): 100% | Spleen weight reduction (5 mg/kg PO QD): 54% | Summed histopathology scores reduction (5 mg/kg PO QD): 81% | Plasma anti-dsDNA IgG levels (10 mg/kg PO QD): significantly reduced | Glomerulonephritis score reduction (10 mg/kg PO QD): 100% | Urine protein levels (10 mg/kg PO QD, p<0.05 at mouse age 42-43 wk): significantly reduced | Interstitial nephritis score reduction (10 mg/kg PO QD): 67% | Perivascular inflammation score reduction (10 mg/kg PO QD): 100% | Protein cast severity reduction (10 mg/kg PO QD): 100% | Spleen weight reduction (10 mg/kg PO QD): 55% | Summed histopathology scores reduction (10 mg/kg PO QD): 91% | Body weight loss (percent change from baseline) (1, 5 or 10 mg/kg PO QD 20 wk, over time): did not differ significantly | Kidney weight (1, 5 or 10 mg/kg PO QD): did not differ significantly | % of animals with proteinuria (urine protein levels >300 mg/dl) (all doses (1, 5, or 10 mg/kg), animal age 43 weeks): significantly reduced | Sodium (Na) (serum at termination, Compound 292 1 mg/kg): significantly increased | Amylase (AMY) (serum at termination, Compound 292 5 mg/kg, Dex 2 mg/kg): significantly reduced | Magnesium (Mg) (serum at termination, Compound 292 10 mg/kg, Dex 2 mg/kg): significantly increased | Aspartate aminotransferase (AST) (serum at termination, Compound 292 (1, 5, 10 mg/kg)): significantly reduced | Albumin (ALB) [1]: significantly increased | Blood urea nitrogen (BUN) [1]: significantly reduced | Calcium (CA) [1]: significantly increased | Creatine kinase (CPK) [1]: significantly reduced | Globulin (GLOB) [1]: significantly reduced | Triglycerides (TRIG) [1]: significantly reduced
